The subject of one assay is Aβ production. Description: Cellular Aβ IC50 determination (Aβ40 sandwich ELISA). The following applies: Cricetulus griseus; Aβ40, Chinese hamster ovary cells over-expressing human APP695 with London and Swedish mutations, 24 h incubation. It counts as cell-based. Here is the method:
The potency of compounds against memapsin 2 activity was determined in a cellular assay of Aβ production. […] Chinese hamster ovary cells that over-express human APP695 with the London and Swedish mutations were seeded in multi-well plates at 10% confluency. Compounds were dissolved in DMSO to concentrations near 1 mM, and diluted into culture media to a final concentration near 4 μM (final 0.4% DMSO). Compounds were diluted serially and applied to cells in multi-well plates 48 h after seeding. Incubation was continued in 5% CO2 at 37 degrees C. for 24 h. Aliquots were removed and assayed for Aβ40 content using a sandwich ELISA (BioSource International). Amount of Aβ40 over the range of concentration of compounds, relative to control incubations, were fit to a 4-parameter IC50 model.

Another assay concerns the target Cathepsin D (Homo sapiens, UniProt P07339). Description: Inhibition of cathepsin D activity (MALDI-TOF, substrate peptide […]). It counts as biochemical. The following applies: pH 4.1, 37 degrees C., read-out: Cath D Ki.
The target of the next assay is memapsin 2 (Homo sapiens, UniProt P56817). Kind of assay: Inhibition of memapsin 2 beta-secretase activity toward fluorogenic substrate FS-2. The class given is biochemical. The following applies: pH 4, 37° C., 20 minutes pre-incubation, fluorogenic substrate FS-2, tight-binding model; read-out: M2 Ki.
memapsin 2, sequence (P56817 46-501): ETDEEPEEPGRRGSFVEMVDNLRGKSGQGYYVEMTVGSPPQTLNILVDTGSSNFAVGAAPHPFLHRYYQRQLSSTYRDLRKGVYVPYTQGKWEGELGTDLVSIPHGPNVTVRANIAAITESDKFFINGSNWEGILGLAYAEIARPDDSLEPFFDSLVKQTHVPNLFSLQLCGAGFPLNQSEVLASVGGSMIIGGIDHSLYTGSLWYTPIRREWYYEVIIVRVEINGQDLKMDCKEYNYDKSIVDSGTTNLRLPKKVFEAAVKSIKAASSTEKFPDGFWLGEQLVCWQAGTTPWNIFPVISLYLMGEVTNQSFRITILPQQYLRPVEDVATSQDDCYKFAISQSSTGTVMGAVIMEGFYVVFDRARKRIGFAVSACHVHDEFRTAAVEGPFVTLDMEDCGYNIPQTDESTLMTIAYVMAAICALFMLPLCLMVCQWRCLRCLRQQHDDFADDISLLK

Where only a bound is given, the exact number is not on record here.

Cathepsin D, sequence (P07339 65-412, species assumed): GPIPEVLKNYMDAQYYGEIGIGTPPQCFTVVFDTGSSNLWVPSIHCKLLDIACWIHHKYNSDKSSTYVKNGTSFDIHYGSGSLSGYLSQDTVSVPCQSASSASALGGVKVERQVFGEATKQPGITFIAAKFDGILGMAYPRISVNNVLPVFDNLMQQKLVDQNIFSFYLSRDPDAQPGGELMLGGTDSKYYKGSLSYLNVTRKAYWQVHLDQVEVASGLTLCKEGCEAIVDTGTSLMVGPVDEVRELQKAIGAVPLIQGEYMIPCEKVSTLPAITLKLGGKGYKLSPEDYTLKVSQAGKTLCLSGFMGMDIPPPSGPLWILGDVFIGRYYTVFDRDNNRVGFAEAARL
Protocol for Cathepsin D: After equilibration at 37 degrees C., the reactions were initiated by the addition of an aliquot of memapsin 2. Aliquots were removed at time intervals, and combined with an equal volume of MALDI-TOF matrix (α-hydroxycinnamic acid in acetone, 20 mg/ml) and immediately spotted in duplicate onto a stainless-steel MALDI sample plate. MALDI-TOF mass spectrometry was performed on a PE Biosystems Voyager DE instrument at the Molecular Biology Resource Center on campus. The instrument was operated at 25,000 accelerating volts in positive mode with a 150 ns delay. Ions with a mass-to-charge ratio (m/z) were detected in the range of 650-2000 atomic mass units. Data was analyzed by the Voyager Data Explorer module to obtain ion intensity data for mass species of substrates and corresponding products in a given mixture. Relative product formation was calculated as the ratio of signal intensity of the product to the sum of signal intensities of both product and the corresponding substrate. Relative product formed per unit time was obtained from non-linear regression analysis of the data representing the initial 15% formation of product using the model: 1−e^−kT,
where k is the relative hydrolytic rate constant and T is time in seconds. Initial rates were expressed relative to uninhibited controls and fit to a tight-binding model of competitive inhibition as above.
Protocol for memapsin 2: Potency of compounds were determined by measurement of their inhibition of memapsin 2 activity toward a fluorescent substrate. […] Briefly, assays were performed at pH 4, 37° C., by pre-incubation of memapsin 2 enzyme with compound for 20 minutes. Activity measure was initiated by addition of a fluorogenic substrate FS-2 (Bachem Americas, Torrance, Calif.). Fluorescent signal increase over time was measured as a rate of hydrolysis of the peptide substrate.

`Cc1csc(C[C@H](C)C(=O)N[C@@H](CNC(=O)O[C@H]2CCOC2)C(=O)N[C@@H](CC(C)C)[C@@H](O)C[C@@H](C)C(=O)N[C@H](C(=O)NCC(C)C)C(C)C)n1` [(S)-tetrahydrofuran-3-yl(S)-3-((4S,5S,7R)-5-hydroxy-8-((S)-1-(isobutylamino)-3-methyl-1-oxobutan-2-ylamino)2,7-dimethyl-8-oxooctan-4-ylamino)-2-((S)-2-methyl-3-(4-methylthiazol-2-yl)propanamido)-3-oxopropylcarbamate] showed an IC50 in the assay on Aβ production below 6 µM. In addition, the Ki on Cathepsin D and on memapsin 2 was below 0.1 µM each time.

Compound `Cc1csc(C[C@H](C)C(=O)N[C@@H](CN(C)S(C)(=O)=O)C(=O)N[C@@H](CC(C)C)[C@@H](O)C[C@@H](C)C(=O)N[C@H](C(=O)NCC(C)C)C(C)C)n1` [(2R,4S,5S)-4-hydroxy-N-((S)-1-(isobutylamino)-3-methyl-1-oxobutan-2-yl)-2,7-dimethyl-5-((S)-2-((S)-2-methyl-3-(4-methylthiazol-2-yl)propanamido)-3-(N-methylmethylsulfonamido)propanamido)octanamide] had an IC50 in the assay on Aβ production of 6 to 100 µM. For the same compound, the Ki on memapsin 2 fell in the range of 0.1 to 0.6 µM.

As for `CC[C@@H](Cc1nc(C)cs1)C(=O)N[C@@H](CN(C)OC)C(=O)N[C@@H](CC(C)C)[C@@H](O)C[C@@H](C)C(=O)N[C@H](C(=O)NCC(C)C)C(C)C` [(2R,4S,5S)-4-hydroxy-N-((S)-1-(isobutylamino)-3-methyl-1-oxobutan-2-yl)-5-((S)-3-(methoxy(methyl)amino)-2-((S)-2-((4-methylthiazol-2-yl)methyl)butanamido)propanamido)-2,7-dimethyloctanamide], the IC50 in the assay with Aβ production is above 100 µM. The Ki at memapsin 2 was 0.1 to 0.6 µM.

In the assay with Aβ production, `Cc1nc(C[C@H](C)C(=O)N[C@@H](CNC(=O)OC(C)(C)C)C(=O)N[C@@H](CC(C)C)[C@@H](O)C[C@@H](C)C(=O)N[C@H](C(=O)NCC(C)C)C(C)C)c(C)o1` [tert-butyl (S)-2-((S)-3-(2,5-dimethyloxazol-4-yl)-2-methylpropanamido)-3-((4S,5S,7R)-5-hydroxy-8-((S)-1-(isobutylamino)-3-methyl-1-oxobutan-2-ylamino)-2,7-dimethyl-8-oxooctan-4-ylamino)-3-oxopropylcarbamate] returned a concentration for half-maximal inhibition (IC50) below 6 µM. Besides, the inhibition constant Ki at Cathepsin D and on memapsin 2 was below 0.1 µM in each case.

With `CCC(Cn1nc(C)cc1C)C(=O)N[C@@H](CNC(=O)OCCF)C(=O)N[C@@H](CC(C)C)[C@@H](O)C[C@@H](C)C(=O)N[C@H](C(=O)NCC(C)C)C(C)C` (stereo partly drawn) [2-fluoroethyl (2S)-2-(2-((3,5-dimethyl-1H-pyrazol-1-yl)methyl)butanamido)-3-((4S,5S,7R)-5-hydroxy-8-((S)-1-(isobutylamino)-3-methyl-1-oxobutan-2-ylamino)-2,7-dimethyl-8-oxooctan-4-ylamino)-3-oxopropylcarbamate], the IC50 in the assay with Aβ production fell in the range of 6 to 100 µM. Besides, the Ki at Cathepsin D and on memapsin 2 was below 0.1 µM in each case.

In the assay with Aβ production, `Cc1csc(C[C@H](C)C(=O)N[C@@H](CNC(=O)OC(C)(C)C)C(=O)N[C@@H](CC(C)C)[C@@H](O)C[C@@H](C)C(=O)N[C@H](C(=O)NCc2ccncc2)C(C)C)n1` [tert-butyl (S)-3-(4S,5S,7R)-hydromxy-2,7-dimethyl-8-((S)-3-methyl-1-oxo-1-(pyridin-4-ylmethylamino)butan-2-ylamino)-8-oxooctan-4-ylamino)-2-((S)-2-methyl-3-(4-methylthiazol-2-yl)propanamido)-3-oxopropylcarbamate] returned an IC50 below 6 µM. Also, the inhibitory constant (Ki) at Cathepsin D was 0.1 to 0.6 µM; at memapsin 2, below 0.1 µM.

In the assay on Aβ production, `CC[C@@H](Cn1nc(C)cc1C)C(=O)N[C@@H](CNC(=O)OC(C)(C)C)C(=O)N[C@@H](CC(C)C)[C@@H](O)C[C@@H](C)C(=O)N[C@H](C(=O)NCC(C)C)C(C)C` [tert-butyl (S)-2-((S)-2-((3,5-dimethyl-1H-pyrazol-1-yl)methyl)butanamido)-3-((4S,5S,7R)-5-hydroxy-8-((S)-1-(isobutylamino)-3-methyl-1-oxobutan-2-ylamino)-2,7-dimethyl-8-oxooctan-4-ylamino)-3-oxopropylcarbamate] yielded an IC50 below 6 µM. Further, the Ki at Cathepsin D and on memapsin 2 was below 0.1 µM throughout.

`CC[C@@H](Cn1nc(C)cc1C)C(=O)N[C@@H](CNC(=O)OC(C)(C)C)C(=O)N[C@@H](CC(C)C)[C@@H](O)C[C@@H](C)C(=O)N[C@H](C(=O)NCc1ccncc1)C(C)C` [tert-butyl (S)-2-((S)-2-((3,5-dimethyl-1H-pyrazol-1-yl)methyl)butanamido)-3-((4S,5S,7R)-5-hydroxy-2,7-dimethyl-8-((S)-3-methyl-1-oxo-1-(pyridin-4-ylmethylamino)butan-2-ylamino)-8-oxooctan-4-ylamino)-3-oxopropylcarbamate] returned an IC50 in the assay with Aβ production below 6 µM. Besides, the Ki on memapsin 2 is below 0.1 µM.

With `Cc1csc(C[C@H](C)C(=O)N[C@@H](CNC(=O)OC(C)(C)C)C(=O)N[C@@H](CC(C)C)[C@@H](O)C[C@@H](C)C(=O)N[C@H](CS(=O)(=O)CC(C)C)C(C)C)n1` [tert-butyl (S)-3-((4S,5S,7R)-5-hydroxy-8-((S)-1-(isobutylsulfonyl)-3-methylbutan-2-ylamino)-2,7-dimethyl-8-oxooctan-4-ylamino)-2-((S)-2-methyl-3-(4-methylthiazol-2-yl)propanamido)-3-oxopropylcarbamate], the Ki at Cathepsin D and on memapsin 2 was above 0.6 µM throughout.

As to `Cc1csc(C[C@H](C)C(=O)N[C@@H](CC(=O)N(C)C)C(=O)N[C@@H](CC(C)C)[C@@H](O)C[C@@H](C)C(=O)N[C@H](C(=O)NCC(C)C)C(C)C)n1` [(S)-N1-((4S,5S,7R)-5-hydroxy-8-((S)-1-(isobutylamino)-3-methyl-1-oxobutan-2-ylamino)-2,7-dimethyl-8-oxooctan-4-yl)-N4,N4-dimethyl-2-((S)-2-methyl-3-(4-methylthiazol-2-yl)propanamido)succinamide], the Ki on Cathepsin D was below 0.1 µM; at memapsin 2, 0.1 to 0.6 µM.

For `Cc1nc(COC(=O)N[C@@H](CC(N)=O)C(=O)N[C@@H](CC(C)C)[C@@H](O)C[C@@H](C)C(=O)N[C@H](C(=O)NCC(C)C)C(C)C)c(C)o1` [(2,5-dimethyloxazol-4-yl)methyl (S)-4-amino-1-((4S,5S,7R)-5-hydroxy-8-((S)-1-(isobutylamino)-3-methyl-1-oxobutan-2-ylamino)-2,7-dimethyl-8-oxooctan-4-ylamino)-1,4-dioxobutan-2-ylcarbamate], the Ki on Cathepsin D was below 0.1 µM; at memapsin 2, 0.1 to 0.6 µM.

On to `CC[C@@H](Cn1nc(C)cc1C)C(=O)N[C@@H](CNC(=O)OC(C)(C)C)C(=O)N[C@@H](CC(C)C)[C@@H](O)C[C@@H](C)C(=O)N[C@H](C(=O)NCc1ccccn1)C(C)C` [tert-butyl (S)-2-((S)-2-((3,5-dimethyl-1H-pyrazol-1-yl)methyl)butanamido)-3-((4S,5S,7R)-5-hydroxy-2,7-dimethyl-8-((S)-3-methyl-1-oxo-1-(pyridin-2-ylmethylamino)butan-2-ylamino)-8-oxooctan-4-ylamino)-3-oxopropylcarbamate], for which the IC50 with Aβ production lay within 6 to 100 µM. Also, the Ki on memapsin 2 was below 0.1 µM.

For `Cc1csc(C[C@H](C)C(=O)N[C@@H](CC(=O)O)C(=O)N[C@@H](CC(C)C)[C@@H](O)C[C@@H](C)C(=O)N[C@H](C(=O)NCC(C)C)C(C)C)n1` [(S)-4-((4S,5S,7R)-5-hydroxy-8-((S)-1-(isobutylamino)-3-methyl-1-oxobutan-2-ylamino)-2,7-dimethyl-8-oxooctan-4-ylamino)-3-((S)-2-methyl-3-(4-methylthiazol-2-yl)propanamido)-4-oxobutanoic acid], the Ki at Cathepsin D and at memapsin 2 was 0.1 to 0.6 µM each time.

As for `CC[C@@H](Cn1nc(C)cc1C)C(=O)N[C@@H](CC(N)=O)C(=O)N[C@@H](CC(C)C)[C@@H](O)C[C@@H](C)C(=O)N[C@H](C(=O)NCC(C)C)C(C)C` [(S)-2-((S)-2-((3,5-dimethyl-1H-pyrazol-1-yl)methyl)butanamido)-N1-((4S,5S,7R)-5-hydroxy-8-((S)-1-(isobutylamino)-3-methyl-1-oxobutan-2-ylamino)-2,7-dimethyl-8-oxooctan-4-yl)succinamide], the figures for the inhibition constant (Ki) on Cathepsin D and at memapsin 2 were below 0.1 µM and 0.1 to 0.6 µM, respectively.

In turn, `Cc1csc(C[C@H](C)C(=O)N[C@@H](CNC(=O)OC(C)(C)C)C(=O)N[C@@H](Cc2cc(F)cc(F)c2)[C@@H](O)C[C@@H](C)C(=O)N[C@H](C(=O)NCC(C)C)C(C)C)n1` [tert-butyl (S)-3-((2S,3S,5R)-1-(3,5-difluorophenyl)-3-hydroxy-6-((S)-1-(isobutylamino)-3-methyl-1-oxobutan-2-ylamino)-5-methyl-6-oxohexan-2-ylamino)-2-((S)-2-methyl-3-(4-methylthiazol-2-yl)propanamido)-3-oxopropylcarbamate] gave a concentration for half-maximal inhibition (IC50) with Aβ production of 6 to 100 µM. Further, on memapsin 2, the Ki is below 0.1 µM.

For the compound `COCO[C@@H](Cn1nc(C)cc1C)C(=O)N[C@@H](CNC(=O)OC(C)(C)C)C(=O)N[C@@H](CC(C)C)[C@@H](O)C[C@@H](C)C(=O)N[C@H](C(=O)NCC(C)C)C(C)C` [tert-butyl (S)-2-((S)-3-(3,5-dimethyl-1H-pyrazol-1-yl)-2-(methoxymethoxy)propanamido)-3-((4S,5S,7R)-5-hydroxy-8-((S)-1-(isobutylamino)-3-methyl-1-oxobutan-2-ylamino)-2,7-dimethyl-8-oxooctan-4-ylamino)-3-oxopropylcarbamate], the results for the inhibitory constant (Ki) at Cathepsin D and at memapsin 2 were below 0.1 µM and 0.1 to 0.6 µM, respectively.

Usually IC50 stands for the concentration needed to halve the response being measured. High values mean weaker potency, low ones greater potency. For orientation: Ki means the dissociation constant of the complex between target and ligand, obtained from inhibition or displacement.
